Values of other authors in patent US10357529B2, “Natural formulation for treating hangover” (RVRS, LLC, priority 2016, dated 2019).

How the values were obtained:
BZ-sites on GABAAR = settings: competitive; read-out: IC50, inhibition of BZ-site [3H]flunitrazepam binding
GABAAR = settings: 1 μM; hippocampus and cultured neurons

O=C1c2c(O)cc(O)cc2O[C@H](c2cc(O)c(O)c(O)c2)[C@H]1O [DHM, Dihydromyricetin]
EtOH consumption in an intermittent voluntary EtOH intake paradigm (rats): greatly reduced EtOH consumption
effect on acute alcohol (EtOH) intoxication and withdrawal signs (rats; 1 mg/kg, i.p. injection): counteracted acute alcohol (EtOH) intoxication
IC50 (BZ-sites on GABAAR): 4.36 µM
effect on EtOH-induced potentiation of GABAAR's and GABAAR plasticity (GABAAR): antagonized both acute EtOH-induced potentiation of GABAAR's and EtOH exposure/withdrawal-induced GABAAR plasticity
